PMC5537346, “Characterisation and pharmacological analysis of a crustacean G protein-coupled receptor: the red pigment-concentrating hormone receptor of Daphnia pulex” (Scientific Reports, 2017)
Where two headings read alike, the source gives them in different places. Where a SMILES comes first, the peptide text is derived from it. [ ]: non-standard residue; d: D form. pGlu = O=C1CC[C@@H](C(=O)O)N1

Molecular target: T1, Dappu-RPCHR (Daphnia pulex RPCH receptor) (Daphnia pulex, UniProt A0A240FBD5)
T1 sequence (A0A240FBD5 1-451): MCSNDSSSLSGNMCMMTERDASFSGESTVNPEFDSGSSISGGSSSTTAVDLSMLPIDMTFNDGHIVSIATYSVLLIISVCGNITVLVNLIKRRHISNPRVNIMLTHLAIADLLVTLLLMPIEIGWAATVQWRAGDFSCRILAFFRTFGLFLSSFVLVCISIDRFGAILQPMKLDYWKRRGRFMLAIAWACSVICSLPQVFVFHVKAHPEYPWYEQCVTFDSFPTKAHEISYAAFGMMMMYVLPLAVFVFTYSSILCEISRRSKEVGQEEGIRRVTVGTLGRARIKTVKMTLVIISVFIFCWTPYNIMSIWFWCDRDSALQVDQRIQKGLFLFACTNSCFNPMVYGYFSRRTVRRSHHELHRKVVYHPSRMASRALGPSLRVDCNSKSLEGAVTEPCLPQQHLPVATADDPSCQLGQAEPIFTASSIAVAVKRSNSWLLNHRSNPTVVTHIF
Test: in vitro cell-based bioluminescence (aequorin Ca2+) assay on Dappu-RPCHR expressing CHO-WTA11 cells
Conditions: for fold lower affinity / potency relative to Dappu-RPCH: from EC50 values
Procedure: Pharmacological analyses were performed in Chinese hamster ovary (CHO) WTA11 cells stably co-expressing the bioluminescent protein apoaequorin and the promiscuous Gα16 subunit, which couples most agonist-induced GPCRs to the phospholipase C and Ca^2+ pathway, irrespective of their natural signalling cascade.
CHO-WTA11 cells were cultured in monolayers in Dulbecco’s Modified Eagles Medium nutrient mixture F12-Ham (DMEM/F12) with L-glutamine, 15 mM HEPES, sodium bicarbonate and phenol red (Sigma-Aldrich) supplemented with 100 IU/ml penicillin and 100 µg/ml streptomycin (Gibco), 10% heat-inactivated fetal bovine serum (Gibco) and […] zeocin (Gibco). All cells were maintained in an incubator at 37 °C with a constant supply of 5% CO2.
Transfections with pcDNA3.1-Dappu-RPCHR or empty pcDNA3.1 vector were carried out in T75 flasks at 60–80% confluency. Transfection medium was prepared using the Lipofectamine LTX Kit (Invitrogen) with 2.5 ml Opti-MEM® (Gibco), 12.5 µl PlusTM Reagent and 5 µg vector construct in 5 ml polystyrene round-bottom tubes. After a 5 min incubation period at room temperature, 30 µl LTX was added to the medium. After a further incubation period of 30 min at room temperature, the medium was removed and DNA/LTX mix was added dropwise to the cells followed by 3 ml of fresh complete medium.
Following transfection, cells were incubated overnight (37 °C, 5% CO2), then 10 ml of cell medium was added followed by a second overnight incubation (37 °C, 5% CO2). Ligand-induced changes in intracellular Ca^2+ were then monitored in the cells as described below.
CHO-WTA11 cells transfected with receptor construct (or empty vector) plasmid were detached with PBS, complemented with 0.2% EDTA (pH 8.0), and rinsed off the flask with DMEM/F12 with L-glutamine and 15 mM HEPES (Sigma-Aldrich). The number of viable and nonviable cells was determined using a TC20 automated Cell Counter (BIO-RAD). The cells were pelleted for 5 minutes at 800 rpm and resuspended to a density of 5.10^6 cells/ml in sterile filtered bovine serum albumin (BSA) medium (DMEM/F12 with L-glutamine and 15 mM Hepes, supplemented with 0.1% BSA) and loaded with 5 µM Coelenterazine_h (Invitrogen) for 4 h in the dark, at room temperature, while gently shaking to reconstitute the holo-enzyme aequorin. After a 10-fold dilution, cell solution (50 µl) was delivered to each well in a 96-well plate (~25000 cells/well) and cells were exposed to potential ligands reconstituted in BSA medium and distributed across the plate. In every row, BSA medium alone was placed in one well to serve as the negative control (blank). The Ca^2+ response was recorded for 30 s on a Mithras LB 940 (Berthold Technologies). After 30 s, 0.1% Triton X-100, a non-ionic surfactant, was added to the same well to measure the total cellular Ca^2+ response. The total response (ligand + Triton X-100), which is directly related to the number of cells present in the well, was used to normalise the response. The response of each negative control was subtracted from the luminescence obtained for wells within the same row. Calculations were made using the output file from the Microwin software (Berthold Technologies) in Excel (Microsoft). Further analysis was done in GraphPad Prism 5.

[1] = Table 1, AKH/RPCH and related peptides, calculated from dose-response curves
[2] = Table 2, analogues of Dappu-RPCH

SMILES | EC50 [1] | EC50 [2] | other results
CC(C)[C@H](NC(=O)[C@@H]1CCC(=O)N1)C(=O)N[C@@H](CC(N)=O)C(=O)N[C@@H](Cc1ccccc1)C(=O)N[C@@H](CO)C(=O)N1CCC[C@H]1C(=O)N[C@@H](CO)C(=O)N[C@@H](Cc1c[nH]c2ccccc12)C(N)=O [Anaim-AKH, pQVNFSPSWamide] ([pGlu]VNFSPSW-NH2) | 0.224 nM | – | –
CC(C)[C@H](NC(=O)[C@@H]1CCC(=O)N1)C(=O)N[C@@H](CC(N)=O)C(=O)N[C@@H](Cc1ccccc1)C(=O)N[C@@H](CO)C(=O)N[C@H](C(=O)N[C@@H](CCCCN)C(=O)N[C@@H](Cc1c[nH]c2ccccc12)C(N)=O)[C@@H](C)O [Argsi-RPCH, pQVNFSTKWamide] ([pGlu]VNFSTKW-NH2) | 21.3 nM | – | –
CC(C)C[C@H](NC(=O)[C@@H]1CCC(=O)N1)C(=O)N[C@@H](CC(N)=O)C(=O)N[C@@H](Cc1ccccc1)C(=O)N[C@@H](CO)C(=O)N1CCC[C@H]1C(=O)N[C@@H](CO)C(=O)N[C@@H](Cc1c[nH]c2ccccc12)C(N)=O [Corpu-AKH, pQLNFSPSWamide] ([pGlu]LNFSPSW-NH2) | 0.212 nM | – | EC50 values (in words): more or less the same as for Anaim-AKH
CC(C)[C@H](NC(=O)[C@@H]1CCC(=O)N1)C(=O)N[C@@H](CC(N)=O)C(=O)N[C@@H](Cc1ccccc1)C(=O)N[C@@H](CO)C(=O)N[C@H](C(=O)NCC(=O)N[C@@H](Cc1c[nH]c2ccccc12)C(N)=O)[C@@H](C)O [Grybi-AKH, pQVNFSTGWamide] ([pGlu]VNFSTGW-NH2) | 0.0667 nM | – | EC50: 0.067 nM
CC(C)[C@H](NC(=O)[C@@H]1CCC(=O)N1)C(=O)N[C@@H](CC(N)=O)C(=O)N[C@@H](Cc1ccccc1)C(=O)N[C@H](C(=O)N1CCC[C@H]1C(=O)N[C@@H](CO)C(=O)N[C@@H](Cc1c[nH]c2ccccc12)C(N)=O)[C@@H](C)O [Libau-AKH, pQVNFTPSWamide] ([pGlu]VNFTPSW-NH2) | 0.179 nM | – | –
CC(C)[C@H](NC(=O)[C@@H]1CCC(=O)N1)C(=O)N[C@@H](CC(N)=O)C(=O)N[C@@H](Cc1ccccc1)C(=O)N[C@@H](CO)C(=O)N1CCC[C@H]1C(=O)NCC(=O)N[C@@H](Cc1c[nH]c2ccccc12)C(N)=O [Manto-CC, pQVNFSPGWamide] ([pGlu]VNFSPGW-NH2) | 0.1 nM | – | EC50 values (in words): more or less the same as for Anaim-AKH
CC(C)C[C@H](NC(=O)[C@@H]1CCC(=O)N1)C(=O)N[C@@H](CC(N)=O)C(=O)N[C@@H](Cc1ccccc1)C(=O)N[C@@H](CO)C(=O)N[C@@H](CO)C(=O)NCC(=O)N[C@@H](Cc1c[nH]c2ccccc12)C(N)=O [Nepci-AKH, pQLNFSSGWamide] ([pGlu]LNFSSGW-NH2) | 0.272 nM | – | fold lower affinity / potency relative to Dappu-RPCH: about 4 fold
CC(C)C[C@H](NC(=O)[C@@H]1CCC(=O)N1)C(=O)N[C@@H](CC(N)=O)C(=O)N[C@@H](Cc1ccccc1)C(=O)N[C@@H](CO)C(=O)N1CCC[C@H]1C(=O)NCC(=O)N[C@@H](Cc1c[nH]c2ccccc12)C(N)=O [Panbo-RPCH, pQLNFSPGWamide] ([pGlu]LNFSPGW-NH2) | 7.93 nM | – | –
CC(C)[C@H](NC(=O)[C@@H]1CCC(=O)N1)C(=O)N[C@@H](CC(N)=O)C(=O)N[C@@H](Cc1ccccc1)C(=O)N[C@@H](CO)C(=O)N1CCC[C@H]1C(=O)N[C@@H](CC(N)=O)C(=O)N[C@@H](Cc1c[nH]c2ccccc12)C(N)=O [Peram-CAH-I, pQVNFSPNWamide] ([pGlu]VNFSPNW-NH2) | 0.393 nM | – | EC50 values (in words): more or less the same as for Anaim-AKH
CC(C)[C@H](NC(=O)[C@@H]1CCC(=O)N1)C(=O)N[C@@H](CC(N)=O)C(=O)N[C@@H](Cc1ccccc1)C(=O)N[C@@H](CO)C(=O)N1CCC[C@H]1C(=O)N[C@@H](CO)C(=O)N[C@@H](Cc1c[nH]c2ccccc12)C(=O)NCC(=O)N[C@@H](CC(N)=O)C(N)=O [Placa-HrTH, pQVNFSPSWGNamide] ([pGlu]VNFSPSWGN-NH2) | 0.664 nM | – | EC50: 0.66 nM; fold lower affinity / potency relative to Dappu-RPCH: ca. 10 fold
CC(C)C[C@H](NC(=O)[C@@H]1CCC(=O)N1)C(=O)N[C@@H](CC(N)=O)C(=O)N[C@@H](Cc1ccccc1)C(=O)N[C@@H](CO)C(=O)N[C@H](C(=O)NCC(=O)N[C@@H](Cc1c[nH]c2ccccc12)C(N)=O)[C@@H](C)O [Schgr-AKH-II, pQLNFSTGWamide] ([pGlu]LNFSTGW-NH2) | 0.237 nM | – | fold lower affinity / potency relative to Dappu-RPCH: about 4 fold
C[C@H](NC(=O)[C@@H]1CCC(=O)N1)C(=O)N[C@@H](CC(N)=O)C(=O)N[C@@H](Cc1ccccc1)C(=O)N[C@@H](CO)C(=O)N[C@H](C(=O)N[C@@H](CO)C(=O)N[C@@H](Cc1c[nH]c2ccccc12)C(N)=O)[C@@H](C)O [[Ala^2]Dappu-RPCH, pQANFSTSWamide] ([pGlu]ANFSTSW-NH2) | – | 17.7 nM | –
CC(C)[C@H](NC(=O)[C@@H]1CCC(=O)N1)C(=O)N[C@@H](C)C(=O)N[C@@H](Cc1ccccc1)C(=O)N[C@@H](CO)C(=O)N[C@H](C(=O)N[C@@H](CO)C(=O)N[C@@H](Cc1c[nH]c2ccccc12)C(N)=O)[C@@H](C)O [[Ala^3]Dappu-RPCH, pQVAFSTSWamide] ([pGlu]VAFSTSW-NH2) | – | 156 nM | –
CC(C)[C@H](NC(=O)[C@@H]1CCC(=O)N1)C(=O)N[C@@H](CC(N)=O)C(=O)N[C@@H](C)C(=O)N[C@@H](CO)C(=O)N[C@H](C(=O)N[C@@H](CO)C(=O)N[C@@H](Cc1c[nH]c2ccccc12)C(N)=O)[C@@H](C)O [[Ala^4]Dappu-RPCH, pQVNASTSWamide] ([pGlu]VNASTSW-NH2) | – | 299 nM | –
CC(C)[C@H](NC(=O)[C@@H]1CCC(=O)N1)C(=O)N[C@@H](CC(N)=O)C(=O)N[C@@H](Cc1ccccc1)C(=O)N[C@@H](C)C(=O)N[C@H](C(=O)N[C@@H](CO)C(=O)N[C@@H](Cc1c[nH]c2ccccc12)C(N)=O)[C@@H](C)O [[Ala^5]Dappu-RPCH, pQVNFATSWamide] ([pGlu]VNFATSW-NH2) | – | 3.61 nM | –
CC(C)[C@H](NC(=O)[C@@H]1CCC(=O)N1)C(=O)N[C@@H](CC(N)=O)C(=O)N[C@@H](Cc1ccccc1)C(=O)N[C@@H](CO)C(=O)N[C@@H](C)C(=O)N[C@@H](CO)C(=O)N[C@@H](Cc1c[nH]c2ccccc12)C(N)=O [[Ala^6]Dappu-RPCH, pQVNFSASWamide] ([pGlu]VNFSASW-NH2) | – | 0.532 nM | –
CC(C)[C@H](NC(=O)[C@@H]1CCC(=O)N1)C(=O)N[C@@H](CC(N)=O)C(=O)N[C@@H](Cc1ccccc1)C(=O)N[C@@H](CO)C(=O)N[C@H](C(=O)N[C@@H](C)C(=O)N[C@@H](Cc1c[nH]c2ccccc12)C(N)=O)[C@@H](C)O [[Ala^7]Dappu-RPCH, pQVNFSTAWamide] ([pGlu]VNFSTAW-NH2) | – | 0.355 nM | –
CC(C)[C@H](NC(=O)[C@@H]1CCC(=O)N1)C(=O)N[C@@H](CC(N)=O)C(=O)N[C@@H](Cc1ccccc1)C(=O)N[C@@H](CO)C(=O)N[C@H](C(=O)N[C@@H](CO)C(=O)N[C@@H](C)C(N)=O)[C@@H](C)O [[Ala^8]Dappu-RPCH, pQVNFSTSAamide] ([pGlu]VNFSTSA-NH2) | – | 131 nM | –
CC(=O)N[C@@H](C)C(=O)N[C@H](C(=O)N[C@@H](CC(N)=O)C(=O)N[C@@H](Cc1ccccc1)C(=O)N[C@@H](CO)C(=O)N[C@H](C(=O)N[C@@H](CO)C(=O)N[C@@H](Cc1c[nH]c2ccccc12)C(N)=O)[C@@H](C)O)C(C)C [[N-Ac-Ala^1]Dappu-RPCH, [NAc-Ala]-VNFSTSWamide] (Ac-AVNFSTSW-NH2) | – | 48.7 nM | fold lower affinity / potency relative to Dappu-RPCH: 750 fold
